Experimental data published in publication doi:10.1101/2023.02.24.529844v1, “Characterization of new highly selective pyrazolo[4,3-d]pyrimidine inhibitor of CDK7” (biorxiv, 2023).

Key:
[1] = target: T1, CK1δ (Homo sapiens, UniProt P48730); assay: Eurofins kinase selectivity panel; type: biochemical; details: read-out: residual activity at 1 μM
T1 construct: gene CSNK1D; Eurofins Discovery kinase panel

[2] = target: T2, CDK16 (Homo sapiens, UniProt Q00536); assay: Eurofins kinase selectivity panel; type: biochemical; details: read-out: residual activity at 1 μM
T2 construct: Eurofins Discovery kinase panel

[3] = target: CDK9/cyclin T (Homo sapiens, UniProt P50750); assay: biochemical; design: radiometric kinase inhibition assay with [gamma-33P]ATP, P-81 phosphocellulose spotting, digital image analysis
Method: (§1) The kinase inhibition assay was performed as previously described. Briefly, all tested kinases were incubated with specific substrates in the presence of ATP, 0.05 µCi [γ^33P]ATP and the LGR6768 compound in a final volume of 10 µl. The reaction was stopped by adding 3% aq. H3PO4. Aliquots were spotted onto P-81 phosphocellulose (Whatman), washed three times with 0.5% aq. H3PO4 and air-dried. Kinase inhibition was quantified using a FLA-7000 digital image analyser (Fujifilm). The drug doses required to decrease kinase activities by 50%, represented by the IC50 values, were determined from dose[…]response curves. The selectivity profiling of LGR6768 was performed on a panel of 50 kinases, including known off-targets of other structurally related pyrazolo[4,3-d]pyrimidines or isosteres, such as roscovitine or CR8 [31]. Given the high structural similarity within the CDK family, we also evaluated LGR6768 against 14 CDKs to assess its selectivity across them. The compound was applied at a 1 µM concentration, and the experiment confirmed selective reduction of the enzymatic activity of CDK7 to 4%.

[4] = target: CDK2/cyclin E (Homo sapiens, UniProt P24941); assay: biochemical; design: radiometric kinase inhibition assay with [gamma-33P]ATP, P-81 phosphocellulose spotting, digital image analysis
Method: as §1

[5] = target: CDK1/cyclin B (Homo sapiens, UniProt P06493); assay: biochemical; design: radiometric kinase inhibition assay with [gamma-33P]ATP, P-81 phosphocellulose spotting, digital image analysis
Method: as §1

[6] = target: CDK4/cyclin D1 (Homo sapiens, UniProt P11802); assay: biochemical; design: radiometric kinase inhibition assay with [gamma-33P]ATP, P-81 phosphocellulose spotting, digital image analysis
Method: as §1

[7] = target: CDK2/cyclin A (Homo sapiens, UniProt P24941); assay: biochemical; design: radiometric kinase inhibition assay with [gamma-33P]ATP, P-81 phosphocellulose spotting, digital image analysis
Method: as §1

[8] = target: CDK5/p25 (Homo sapiens, UniProt Q00535); assay: biochemical; design: radiometric kinase inhibition assay with [gamma-33P]ATP, P-81 phosphocellulose spotting, digital image analysis
Method: as §1

[9] = target: T3, CDK7 (Homo sapiens, UniProt P50613); assay: [gamma-33P]ATP radiometric kinase assay; type: biochemical
T3 construct: recombinant CDK7; with Cyclin-H
T3 sequence (P50613 2-346): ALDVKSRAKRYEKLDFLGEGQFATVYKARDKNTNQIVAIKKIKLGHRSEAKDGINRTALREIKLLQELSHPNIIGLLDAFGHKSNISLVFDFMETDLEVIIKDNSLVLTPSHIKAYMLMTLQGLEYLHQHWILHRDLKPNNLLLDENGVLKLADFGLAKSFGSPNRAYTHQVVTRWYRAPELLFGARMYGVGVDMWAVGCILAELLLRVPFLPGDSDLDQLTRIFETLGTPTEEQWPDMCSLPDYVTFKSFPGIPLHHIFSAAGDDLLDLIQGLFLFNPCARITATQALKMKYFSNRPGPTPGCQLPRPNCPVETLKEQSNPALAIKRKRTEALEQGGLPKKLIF
T3 sequence (P51946 whole entry partner): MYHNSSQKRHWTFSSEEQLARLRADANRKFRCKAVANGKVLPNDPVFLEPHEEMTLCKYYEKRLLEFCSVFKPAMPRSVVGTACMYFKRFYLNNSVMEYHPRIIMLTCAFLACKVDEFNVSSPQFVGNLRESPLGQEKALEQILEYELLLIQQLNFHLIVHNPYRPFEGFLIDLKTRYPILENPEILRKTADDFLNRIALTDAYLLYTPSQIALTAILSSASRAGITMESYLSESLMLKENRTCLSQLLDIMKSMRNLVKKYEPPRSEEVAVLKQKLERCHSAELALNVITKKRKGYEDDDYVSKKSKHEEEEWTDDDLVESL
T3 sequence (P51948 whole entry partner): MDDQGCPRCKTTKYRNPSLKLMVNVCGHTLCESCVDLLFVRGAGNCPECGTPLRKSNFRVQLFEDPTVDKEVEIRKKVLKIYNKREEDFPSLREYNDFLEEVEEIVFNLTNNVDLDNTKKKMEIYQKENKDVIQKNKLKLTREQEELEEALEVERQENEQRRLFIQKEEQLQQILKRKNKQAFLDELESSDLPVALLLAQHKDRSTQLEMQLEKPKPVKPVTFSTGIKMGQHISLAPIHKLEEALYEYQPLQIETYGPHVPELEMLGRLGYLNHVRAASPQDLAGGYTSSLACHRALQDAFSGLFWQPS

T1 sequence (P48730 whole entry): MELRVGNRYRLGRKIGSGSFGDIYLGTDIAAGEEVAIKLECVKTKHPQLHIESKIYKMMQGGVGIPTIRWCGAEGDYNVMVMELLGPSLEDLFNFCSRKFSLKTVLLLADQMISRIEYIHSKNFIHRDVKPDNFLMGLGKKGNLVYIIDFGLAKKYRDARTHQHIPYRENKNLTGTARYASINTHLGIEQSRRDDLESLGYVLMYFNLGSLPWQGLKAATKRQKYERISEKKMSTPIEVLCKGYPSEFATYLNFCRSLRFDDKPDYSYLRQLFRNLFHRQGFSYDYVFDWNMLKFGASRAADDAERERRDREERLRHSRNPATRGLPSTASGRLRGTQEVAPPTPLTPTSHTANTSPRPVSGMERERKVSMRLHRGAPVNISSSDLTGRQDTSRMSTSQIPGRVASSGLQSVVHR
T2 sequence (Q00536 whole entry): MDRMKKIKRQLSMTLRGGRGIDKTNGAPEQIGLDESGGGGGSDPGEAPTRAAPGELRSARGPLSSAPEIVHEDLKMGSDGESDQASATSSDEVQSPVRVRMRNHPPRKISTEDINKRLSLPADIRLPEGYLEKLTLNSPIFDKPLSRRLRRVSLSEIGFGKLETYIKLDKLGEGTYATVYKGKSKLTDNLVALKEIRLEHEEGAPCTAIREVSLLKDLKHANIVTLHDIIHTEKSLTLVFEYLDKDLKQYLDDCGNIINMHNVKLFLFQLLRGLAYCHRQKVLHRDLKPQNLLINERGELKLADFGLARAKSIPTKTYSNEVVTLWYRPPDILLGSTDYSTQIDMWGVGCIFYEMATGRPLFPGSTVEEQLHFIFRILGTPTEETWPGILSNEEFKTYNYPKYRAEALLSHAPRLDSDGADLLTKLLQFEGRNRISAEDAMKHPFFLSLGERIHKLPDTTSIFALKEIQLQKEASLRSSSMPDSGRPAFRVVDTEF
Chain of CDK1/cyclin B (P06493 whole entry): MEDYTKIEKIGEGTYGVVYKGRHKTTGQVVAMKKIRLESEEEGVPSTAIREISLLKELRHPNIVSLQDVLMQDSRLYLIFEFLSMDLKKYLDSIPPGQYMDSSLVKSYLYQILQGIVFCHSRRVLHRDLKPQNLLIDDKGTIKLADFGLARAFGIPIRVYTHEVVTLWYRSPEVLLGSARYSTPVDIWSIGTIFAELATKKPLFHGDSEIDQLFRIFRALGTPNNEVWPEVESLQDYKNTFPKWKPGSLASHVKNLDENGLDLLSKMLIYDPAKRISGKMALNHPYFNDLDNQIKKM
Chain of CDK1/cyclin B (P14635 whole entry partner): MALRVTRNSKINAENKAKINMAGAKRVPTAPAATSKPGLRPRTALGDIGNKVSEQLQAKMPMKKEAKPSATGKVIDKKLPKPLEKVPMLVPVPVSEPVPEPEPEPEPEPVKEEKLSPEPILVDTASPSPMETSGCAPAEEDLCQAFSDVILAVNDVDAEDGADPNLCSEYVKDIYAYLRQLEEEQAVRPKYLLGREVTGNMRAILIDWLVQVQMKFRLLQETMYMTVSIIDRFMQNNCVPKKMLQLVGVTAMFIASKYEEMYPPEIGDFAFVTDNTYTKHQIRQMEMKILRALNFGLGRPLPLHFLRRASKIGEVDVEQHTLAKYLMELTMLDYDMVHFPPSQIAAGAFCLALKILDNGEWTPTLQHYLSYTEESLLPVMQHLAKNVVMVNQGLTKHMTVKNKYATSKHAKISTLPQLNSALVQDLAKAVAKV
Chain of CDK4/cyclin D1 (P11802 whole entry): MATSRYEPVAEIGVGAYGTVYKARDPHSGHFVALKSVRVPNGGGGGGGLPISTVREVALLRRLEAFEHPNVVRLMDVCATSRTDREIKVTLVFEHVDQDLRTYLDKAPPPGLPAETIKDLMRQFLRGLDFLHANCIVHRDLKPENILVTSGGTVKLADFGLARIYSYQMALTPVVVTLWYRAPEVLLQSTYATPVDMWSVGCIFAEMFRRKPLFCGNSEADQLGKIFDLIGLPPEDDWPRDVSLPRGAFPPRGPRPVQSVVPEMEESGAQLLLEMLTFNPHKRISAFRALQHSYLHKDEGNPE
Chain of CDK4/cyclin D1 (P24385 whole entry partner): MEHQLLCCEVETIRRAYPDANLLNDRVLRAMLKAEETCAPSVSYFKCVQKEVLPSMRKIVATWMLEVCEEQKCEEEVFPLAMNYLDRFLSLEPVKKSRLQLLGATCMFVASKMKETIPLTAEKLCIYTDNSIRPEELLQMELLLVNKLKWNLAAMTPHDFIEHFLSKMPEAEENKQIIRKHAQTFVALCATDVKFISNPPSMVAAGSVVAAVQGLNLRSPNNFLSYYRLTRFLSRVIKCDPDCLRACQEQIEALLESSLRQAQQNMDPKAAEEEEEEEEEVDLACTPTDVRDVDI
Chain of CDK5/p25 (Q00535 whole entry): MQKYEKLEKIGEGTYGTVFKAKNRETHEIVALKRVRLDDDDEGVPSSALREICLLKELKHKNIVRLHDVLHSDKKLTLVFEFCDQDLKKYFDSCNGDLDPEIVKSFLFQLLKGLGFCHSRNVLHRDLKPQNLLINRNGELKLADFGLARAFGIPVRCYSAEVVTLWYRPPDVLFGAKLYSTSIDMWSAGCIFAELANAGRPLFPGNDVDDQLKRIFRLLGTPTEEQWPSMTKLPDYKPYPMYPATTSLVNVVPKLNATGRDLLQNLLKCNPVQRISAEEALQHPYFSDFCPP
Chain of CDK5/p25 (Q15078 whole entry partner): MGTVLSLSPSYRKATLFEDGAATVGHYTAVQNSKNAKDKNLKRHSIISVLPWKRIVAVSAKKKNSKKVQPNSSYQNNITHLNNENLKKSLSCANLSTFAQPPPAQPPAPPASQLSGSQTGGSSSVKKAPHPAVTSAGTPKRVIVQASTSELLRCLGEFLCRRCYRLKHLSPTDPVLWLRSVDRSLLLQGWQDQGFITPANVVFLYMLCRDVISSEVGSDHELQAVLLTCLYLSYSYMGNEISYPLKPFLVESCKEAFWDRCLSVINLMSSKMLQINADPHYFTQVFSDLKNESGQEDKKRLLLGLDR
Chain of CDK9/cyclin T (P50750 whole entry): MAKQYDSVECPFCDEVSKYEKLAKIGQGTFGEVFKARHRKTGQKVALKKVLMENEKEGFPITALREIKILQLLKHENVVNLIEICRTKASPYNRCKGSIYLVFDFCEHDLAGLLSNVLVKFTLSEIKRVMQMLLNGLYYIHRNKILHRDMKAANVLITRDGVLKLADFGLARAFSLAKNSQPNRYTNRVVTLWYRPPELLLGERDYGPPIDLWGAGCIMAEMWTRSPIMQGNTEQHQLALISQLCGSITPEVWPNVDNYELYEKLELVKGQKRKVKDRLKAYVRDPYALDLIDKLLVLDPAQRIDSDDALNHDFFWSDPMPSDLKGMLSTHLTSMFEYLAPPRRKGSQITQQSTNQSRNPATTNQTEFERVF
Chain of CDK9/cyclin T (O60563 whole entry partner): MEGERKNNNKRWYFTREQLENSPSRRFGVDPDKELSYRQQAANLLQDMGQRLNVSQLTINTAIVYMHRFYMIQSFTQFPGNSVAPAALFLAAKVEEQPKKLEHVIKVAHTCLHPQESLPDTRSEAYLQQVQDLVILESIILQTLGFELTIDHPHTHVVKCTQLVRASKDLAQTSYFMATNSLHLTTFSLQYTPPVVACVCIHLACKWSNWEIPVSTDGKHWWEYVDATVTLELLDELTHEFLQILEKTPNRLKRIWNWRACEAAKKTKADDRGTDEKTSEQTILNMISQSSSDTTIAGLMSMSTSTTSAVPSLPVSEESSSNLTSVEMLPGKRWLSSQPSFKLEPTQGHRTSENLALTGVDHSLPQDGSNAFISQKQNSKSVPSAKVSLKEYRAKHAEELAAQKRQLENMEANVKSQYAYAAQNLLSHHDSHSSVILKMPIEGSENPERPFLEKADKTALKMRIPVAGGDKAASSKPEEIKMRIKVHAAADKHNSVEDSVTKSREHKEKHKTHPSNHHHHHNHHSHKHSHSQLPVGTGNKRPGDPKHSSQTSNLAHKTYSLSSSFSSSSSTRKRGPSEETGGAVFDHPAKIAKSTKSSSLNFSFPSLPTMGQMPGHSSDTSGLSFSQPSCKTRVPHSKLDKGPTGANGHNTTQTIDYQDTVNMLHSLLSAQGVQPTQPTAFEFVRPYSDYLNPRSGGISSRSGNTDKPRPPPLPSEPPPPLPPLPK

CC(C)c1n[nH]c2c(NCc3ccccc3-c3ccccc3)nc(SC3CCNCC3)nc12 [compound 4, 5-(piperidin-4-yl)thio-3-isopropyl-7-(2-phenylbenzyl)amino-1(2)H-pyrazolo[4,3-d]pyrimidine]
remaining activity at 1 µM [1]: 19% | remaining activity at 1 µM [2]: 19% | IC50 [3]: 6550 nM | IC50 [4]: 250 nM | IC50 [5]: 5140 nM | IC50 [6]: > 20000 nM | IC50 [7]: 500 nM | IC50 [8]: 1120 nM | IC50 [9]: 20 nM
